Data taken from US20120141597A1 (priority 2009, published 2012).

Test system: Leptosphaeria nodorum (LEPTNO)
Experiment: In vitro fungitoxicity (growth inhibition) in copper-minus and copper-plus liquid medium
Format: cell-based
Conditions: CuCl2 10 μM, no test compound, copper-plus vs copper-minus medium, across experiments
Protocol: In vitro fungitoxicity assays against Leptosphaeria nodorum (LEPTNO) were conducted using the liquid growth medium described by Coursen and Sisler (American Journal of Botany 1960, 47, 541-549) except that copper micronutrient, normally included as CuSO4, was omitted. The medium, termed “copper-minus”, was prepared by dissolving 10 g glucose, 1.5 g K2HPO4, 2 g KH2PO4 and 1 g (NH4)2SO4 in 1 liter of deionized water and treating the solution with 0.5 g Chelex 100 resin (Bio-Rad Analytical grade, 50-100 mesh, sodium form, cat#142-2822) by stirring at room temperature for 1 h. MgSO4.7H2O (0.5 g) was added, and stirring was continued for a further hour. Trace elements (minus CuSO4), and vitamins described by Coursen and Sisler were added from concentrated stock solutions and the entire medium was sterilized by filtration. […]
LEPTNO was grown on potato dextrose agar in 9 cm diameter petri dishes for 7 days. […] The spores were resuspended in copper-minus medium, and the suspension adjusted to 2×10^5 spores per mL Microtiter plates were inoculated with 100 μL of this spore suspension and the plates incubated at 25° C. for 72 h before assessing fungal growth by measuring light scattering in a NepheloStar plate reader. Growth inhibition was determined by comparing growth in the presence of test compound with growth in control wells lacking test compound. […]

SMILES: O.O.[Cl][Cu][Cl] [CuCl2, CuCl2.2H2O]
- LEPTNO % Inhn. attributed to copper chloride alone: 7.1 ± 6.0%
